Source: patent US20240358818A1, “ANTIBODY-INDUCING POLYPEPTIDE AND VACCINE” (priority 2021, published 2024)

How the values were obtained:
[1] = molecular target: L452R mutant RBD epitope antigen (Severe acute respiratory syndrome coronavirus 2, UniProt P0DTC2, L452R)
[2] = molecular target: T478K mutant RBD epitope antigen (Severe acute respiratory syndrome coronavirus 2, UniProt P0DTC2, T478K)

| Sequence | reactivity to a homologous epitope of the mutant RBD compared with the wild-type RBD [1] | reactivity of mouse serum to the mutant RBD [2] | reactivity to the mutant RBD compared with reactivity to the wild-type RBD [2] |
| --- | --- | --- | --- |
| GGNYNYLYRLFRKSNLKPFERD [#10] | substantially equivalent |  |  |
| SNLKPFERDISTEIYQAGSTPC [#11] |  | sufficiently high reactivity | a little lower |
